These results are taken from ChEMBL document CHEMBL1201862, “PubChem BioAssay data set” (2004).

Assay [1] has as its target T1, Rac GTPase-activating protein 1 (Homo sapiens, UniProt Q9H0H5).
T1 sequence (Q9H0H5 whole entry): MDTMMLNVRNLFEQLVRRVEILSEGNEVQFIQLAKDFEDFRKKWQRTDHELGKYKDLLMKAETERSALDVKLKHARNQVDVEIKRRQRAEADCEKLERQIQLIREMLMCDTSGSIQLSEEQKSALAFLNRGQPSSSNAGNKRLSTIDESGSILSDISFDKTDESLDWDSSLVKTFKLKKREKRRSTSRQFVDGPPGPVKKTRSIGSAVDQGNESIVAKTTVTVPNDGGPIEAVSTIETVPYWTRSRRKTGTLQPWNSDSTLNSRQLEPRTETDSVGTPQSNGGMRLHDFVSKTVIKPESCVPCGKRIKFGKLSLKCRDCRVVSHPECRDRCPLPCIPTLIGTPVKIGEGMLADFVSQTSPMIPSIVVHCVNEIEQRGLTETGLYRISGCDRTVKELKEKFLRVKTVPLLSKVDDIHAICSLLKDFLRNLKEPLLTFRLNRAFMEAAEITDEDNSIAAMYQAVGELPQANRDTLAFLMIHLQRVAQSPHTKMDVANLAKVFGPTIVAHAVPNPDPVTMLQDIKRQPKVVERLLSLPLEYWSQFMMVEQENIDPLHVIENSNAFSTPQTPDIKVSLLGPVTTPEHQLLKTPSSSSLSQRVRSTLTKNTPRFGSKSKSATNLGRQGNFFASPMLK
Kind of assay: blockers of MgcRacGAP-driven Rac1 GTP hydrolysis – biochemical, ADP Hunter fluorescence, primary and confirmatory, confirmation (AID 624330). In kind it is functional.

Assay [2] concerns the target T2, Sentrin-specific protease 8 (Homo sapiens, UniProt Q96LD8).
T2 sequence (Q96LD8 whole entry): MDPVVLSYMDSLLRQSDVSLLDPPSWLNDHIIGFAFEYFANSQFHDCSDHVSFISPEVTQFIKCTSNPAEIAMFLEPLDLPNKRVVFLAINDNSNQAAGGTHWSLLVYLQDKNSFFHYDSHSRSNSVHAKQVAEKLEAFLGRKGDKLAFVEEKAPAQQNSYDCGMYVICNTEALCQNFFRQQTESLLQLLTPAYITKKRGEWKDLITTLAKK
Kind of assay: inhibition of human SENP8 cleavage activity – biochemical, luminescence, SAR follow-up (AID 504501). The class given is functional.

Assay [3] can be described thus: NIH-3T3 fibroblast cytotoxicity, dose response, cytotoxicity control, cell-based, fluorescence, Alamar Blue, secondary assay (AID 2327).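 Also: NIH-3T3 mouse fibroblasts cultured with fluconazole at 8 µg/mL.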 The class given is functional.
For assay [4], the target named is ATP-dependent molecular chaperone HSP82 (Candida albicans (strain WO-1) (Yeast), UniProt C4YTQ8). Kind of assay: steroid-induced GRE reporter decrease in yeast – S. cerevisiae, luminescence, Hsp90 inhibitor project, dose response (AID 2400).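 Also: beta-galactosidase luminescence from glucocorticoid response element reporter as proxy for Hsp90 function; inhibitor potency where signal loss means Hsp90 inhibition.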 The class given is functional, cell-based.
ATP-dependent molecular chaperone HSP82, sequence (C4YTQ8 whole entry): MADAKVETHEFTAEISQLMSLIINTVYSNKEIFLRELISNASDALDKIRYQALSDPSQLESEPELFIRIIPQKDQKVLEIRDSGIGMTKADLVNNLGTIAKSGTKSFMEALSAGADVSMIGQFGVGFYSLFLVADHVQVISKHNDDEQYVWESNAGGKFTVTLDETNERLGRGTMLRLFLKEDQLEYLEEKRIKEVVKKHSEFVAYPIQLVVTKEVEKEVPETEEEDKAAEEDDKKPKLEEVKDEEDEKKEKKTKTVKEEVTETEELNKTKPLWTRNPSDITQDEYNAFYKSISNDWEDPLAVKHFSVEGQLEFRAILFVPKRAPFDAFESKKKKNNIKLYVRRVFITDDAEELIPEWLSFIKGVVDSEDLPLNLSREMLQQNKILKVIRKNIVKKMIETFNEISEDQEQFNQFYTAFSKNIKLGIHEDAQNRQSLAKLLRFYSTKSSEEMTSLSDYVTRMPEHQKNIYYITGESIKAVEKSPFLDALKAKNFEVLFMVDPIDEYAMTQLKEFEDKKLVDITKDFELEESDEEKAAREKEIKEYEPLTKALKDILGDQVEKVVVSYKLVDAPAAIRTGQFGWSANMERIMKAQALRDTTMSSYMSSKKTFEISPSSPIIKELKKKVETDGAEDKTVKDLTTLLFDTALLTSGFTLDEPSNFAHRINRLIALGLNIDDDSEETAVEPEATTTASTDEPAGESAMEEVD
A short description of assay [5]: cells. The class given is functional, cell-based.
The nature of assay [6]: A549 cell cytotoxicity, dose response, cytotoxicity control, plate reader, cherry-pick, antagonist series (AID 743412). The class given is functional, cell-based.
The target of assay [7] is T3, Sphingosine 1-phosphate receptor 4 (Homo sapiens, UniProt O95977).
T3 sequence (O95977 whole entry): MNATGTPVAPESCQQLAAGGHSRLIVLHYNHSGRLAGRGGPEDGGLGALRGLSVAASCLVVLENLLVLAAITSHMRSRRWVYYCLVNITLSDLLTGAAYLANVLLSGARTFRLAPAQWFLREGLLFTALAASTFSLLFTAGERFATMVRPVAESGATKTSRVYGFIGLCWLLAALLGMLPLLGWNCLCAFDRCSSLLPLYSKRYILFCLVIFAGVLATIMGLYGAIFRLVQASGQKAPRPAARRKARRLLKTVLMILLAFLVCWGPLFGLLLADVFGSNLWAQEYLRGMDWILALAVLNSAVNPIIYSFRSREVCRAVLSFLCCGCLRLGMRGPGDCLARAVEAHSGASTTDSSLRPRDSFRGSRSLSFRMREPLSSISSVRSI
Kind of assay: Fluorescence dose response cell-based high throughput screening assay for antagonists of the Sphingosine 1-Phosphate Receptor 4 (S1P4). [Related pubchem assays: 1524 (Confirmation in triplicates.), 1510 (Primary screen.)]. The class given is functional.

For assay [8], the target named is Sphingosine 1-phosphate receptor 1 (Homo sapiens, UniProt P21453). In kind it is functional.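 Also: Tango beta-arrestin reporter U2OS cells stimulated with S1P near its EC80; inhibitor potency meaning antagonism of receptor activation by the natural agonist.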
Sphingosine 1-phosphate receptor 1, sequence (P21453 whole entry): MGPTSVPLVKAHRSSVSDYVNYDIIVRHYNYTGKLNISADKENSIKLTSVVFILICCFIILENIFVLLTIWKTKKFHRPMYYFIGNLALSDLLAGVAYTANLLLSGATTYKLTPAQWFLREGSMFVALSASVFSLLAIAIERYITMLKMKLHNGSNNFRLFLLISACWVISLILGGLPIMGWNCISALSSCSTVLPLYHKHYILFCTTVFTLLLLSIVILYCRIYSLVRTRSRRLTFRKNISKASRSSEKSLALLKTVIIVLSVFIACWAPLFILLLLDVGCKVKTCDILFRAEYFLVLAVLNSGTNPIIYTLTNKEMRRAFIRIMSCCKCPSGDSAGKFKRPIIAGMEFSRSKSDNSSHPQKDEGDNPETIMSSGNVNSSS
A short description of assay [9]: Trypanosoma cruzi growth suppression in host cells – NIH3T3 host cells, beta-gal luminescence, confirmation (AID 2044).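 Also: intracellular parasites grown in NIH/3T3 mouse fibroblasts as host cells; luminescent beta-galactosidase reporter signal from transgenic T. cruzi replicating inside host cells; inhibitors lower the luminescence signal.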 The class given is functional, cell-based.
Assay [10] deals with T4, Protein RecA (Mycobacterium tuberculosis, UniProt P9WHJ3).
T4 sequence (P9WHJ3 whole entry): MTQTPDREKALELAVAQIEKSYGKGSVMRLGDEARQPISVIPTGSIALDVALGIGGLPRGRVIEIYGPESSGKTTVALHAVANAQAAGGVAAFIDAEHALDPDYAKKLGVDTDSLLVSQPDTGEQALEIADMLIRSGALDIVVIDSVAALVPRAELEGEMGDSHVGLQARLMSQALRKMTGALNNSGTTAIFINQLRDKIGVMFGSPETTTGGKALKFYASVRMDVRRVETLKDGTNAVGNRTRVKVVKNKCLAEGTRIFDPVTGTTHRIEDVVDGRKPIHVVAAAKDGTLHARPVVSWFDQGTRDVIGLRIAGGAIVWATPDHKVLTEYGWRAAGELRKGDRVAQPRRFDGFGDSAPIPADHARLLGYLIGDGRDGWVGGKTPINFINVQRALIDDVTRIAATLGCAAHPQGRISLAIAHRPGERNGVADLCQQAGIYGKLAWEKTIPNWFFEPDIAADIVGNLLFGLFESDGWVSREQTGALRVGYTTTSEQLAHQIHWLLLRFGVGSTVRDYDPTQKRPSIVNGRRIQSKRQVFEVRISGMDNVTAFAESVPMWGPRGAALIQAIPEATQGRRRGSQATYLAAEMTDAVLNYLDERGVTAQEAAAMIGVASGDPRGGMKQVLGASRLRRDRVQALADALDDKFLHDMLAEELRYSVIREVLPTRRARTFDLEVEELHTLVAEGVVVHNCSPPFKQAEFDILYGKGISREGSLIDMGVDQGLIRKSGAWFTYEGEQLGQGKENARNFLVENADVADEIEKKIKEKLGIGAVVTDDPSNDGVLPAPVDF
Kind of assay: Fluorescence Cell-Free Homogeneous Dose Retest to Identify Inhibitors of RecA-Intein Splicing Activity. [Related pubchem assays (depositor defined):AID2097, AID2223, AID489010, AID492950]. In kind it is functional.

Calls of active or inactive are those of the source.

Regarding `Oc1ccc(/C=N\Nc2cc(N3CCOCC3)nc(N3CCOCC3)n2)c(O)c1`, the IC50 (usually the concentration needed to halve the response being measured) was 57.1 µM (active) in [1] and > 99 µM (inactive) in assay [2].
Consider `Cc1ccc(C)c(S(=O)(=O)N2CCN(Cc3ccc(O)c4ncccc34)CC2)c1`, for which the EC50 (commonly the concentration that produces a half-maximal response) in [3] was 81.5 µM (active); in assay [4] it was > 160 µM (inactive); in assay [5], 7.58 µM (active).
For `COc1cc(NC(=O)Cn2ncc(Cl)c(Cl)c2=O)c(C)cc1[N+](=O)[O-]`, the AC50 (commonly the concentration giving half of the maximal activity seen) in assay [6] is 5.78 µM (active). The IC50 in assay [7] is 1.32 µM (active); in assay [8] it was > 49.8 µM (not active). Besides, the EC50 in [9] is 2.39 µM (active); in [10], 8.7 µM (active).
